Like-named read-outs stand apart in the source and are kept apart here.
Experiments:
[1] = system: cMyc, a BRD4 target gene, in KMS12BM cells; experiment: Ex vivo pharmacodynamic spiked cell assay, cMyc protein in KMS12BM cells in participant plasma; type: cell-based, human; details: for inhibition of cMyc at trough: Cycle 1 Day 8 predose; for average cMyc inhibition at steady state: Day 8, predose to 8 hours
Procedure: Pharmacodynamic analysis was performed using an ex vivo assay measuring protein levels of cMyc, a BRD4 target gene, in KMS12BM cells, which were spiked into participant plasma samples collected at predose and various postdose timepoints. […] The average cMyc inhibition at steady state (Day 8, from predose to 8 hours) was 30%, 44%, and 65% for the dose of 8 mg (n=11), 12 mg (n=51), and 16 mg (n=7), respectively. […] Inhibition of cMyc was reduced to <10% at trough (Cycle 1 Day 8 predose) in the 8-mg and 12-mg cohorts and ˜30% in the 16-mg cohort.

[2] = Treatment-emergent adverse events and exposure-safety analysis, Compound 1 monotherapy; type: in vivo, human; details: for predicted probability of hyperglycemia incidence: from AUC-hyperglycemia relationship; for AUC: human, plasma, oral
Procedure: The selected clinical safety endpoints as deemed appropriate (eg, frequently occurring TEAEs (treatment-emergent adverse events), incident rate >20% for all AEs (adverse events) and clinically notable adverse events) were used to evaluate exposure-safety relationships. The safety data from a total of […] participants (including both solid tumors and hematologic malignancies) receiving monotherapy treatment of Compound 1 (n=10 at 8 mg, n=89 at 12 mg, and n=8 at 16 mg) in Parts 1 and 2 were used for analysis.
No statistically significant correlation was identified for steady-state Compound 1 AUC and any TEAEs or clinically notable AEs evaluated in this analysis, except hyperglycemia (p-value<0.05). […] Lack of correlation between Compound 1 AUCss.0-24 and TEAEs could be due to the narrow dose range (8, 12, or 16 mg) explored in this study and small sample sizes in the 8-mg and 16-mg groups of the study (the majority of participants received 12 mg).

[3] = system: myelofibrosis; experiment: Clinical efficacy in myelofibrosis participants (NCT04279847); type: in vivo, human
Procedure: This is a Phase 1, open-label, 2-part study of Compound 1 as monotherapy in participants with relapsed or refractory myelofibrosis (for further details see “Safety and Tolerability Study of INCB057643 in Participants With Myelofibrosis”, ClinicalTrials.gov Identifier: NCT04279847, which is incorporated herein by reference in its entirety). INCB057643 is also referred to as Compound 1 in the present disclosure. […] Participants will receive 4 mg QD of Compound 1 on a continuous basis.
A first participant and a second participant had relapsed myelofibrosis which was treated with Compound 1 monotherapy. A third participant was being treated with single-agent ruxolitinib but having suboptimal responses.

[4] = Clinical pharmacokinetics of Compound 1 monotherapy, Phase 1/2, advanced malignancies; type: in vivo, human
Procedure: The clinical PK of Compound 1 in participants with advanced malignancies (solid and hematologic malignancies) were evaluated in a Phase 1/2, open-label, dose-escalation/dose-expansion, safety and tolerability study. Participants received continuous QD doses of Compound 1. As of the data cutoff date (23 Sep. 2019), 25, 101, and 8 participants who received 8 mg, 12 mg, and 16 mg, respectively, across Part 1 and Part 2 (Compound 1 treated as monotherapy) have been assessed for PK. The PK parameters of parent Compound 1 are summarized in Table 2 and Table 3 (see FIG. 5). Table 2 presents a summary of Compound 1 pharmacokinetic parameters for Compound 1 as monotherapy (part 1 and 2) at cycle 1 day 1. Table 3 presents a summary of Compound 1 pharmacokinetic parameters for Compound 1 as monotherapy (part 1 and 2) at steady-state (cycle 1 day 8).
Blood samples for the determination of plasma concentrations of Compound 1 in Parts 1 and 2 were collected at predose on Cycle 1 Day 1, Cycle 1 Day 2, and Cycle 1 Day 8, and at 0.5, 1, 2, 4, 6, and 8 hours on Cycle 1 Day 1 and Cycle 1 Day 8. The plasma samples of Compound 1 were assayed by a validated LC-MS/MS method.

[5] = system: SET-2 cells; experiment: SET-2 xenograft model
[6] = monotherapy 8, 12 or 16 mg, all grades and causality

CN1C(=O)C(C)(C)Oc2c(-c3cn(C)c(=O)c4[nH]ccc34)cc(S(C)(=O)=O)cc21 [Compound 1, 2,2,4-trimethyl-8-(6-methyl-7-oxo-6,7-dihydro-1H-pyrrolo[2,3-c]pyridin-4-yl)-6-(methylsulfonyl)-2H-1,4-benzoxazin-3(4H)-one]
inhibition of cMyc at trough ([1]; 8 mg): < 10% | average cMyc inhibition at steady state ([1]; 8 mg, n=11): 30% | inhibition of cMyc at trough ([1]; 12 mg): < 10% | average cMyc inhibition at steady state ([1]; 12 mg, n=51): 44% | inhibition of cMyc at trough ([1]; 16 mg): ~30% | average cMyc inhibition at steady state ([1]; 16 mg, n=7): 65% | IC50 ([1]; Homo sapiens, KMS-12-BM, 70 participants, nonlinear regression, plasma concentration, read-out: IC50 (ex vivo, composite PK PD curve)): 202 nM | predicted probability of hyperglycemia incidence ([2]; 2 mg): 8.0% | predicted probability of hyperglycemia incidence ([2]; 4 mg): 9.2% | AUCss,0-24, fourth quartile ([2]; FIG. 8, monotherapy 8-16 mg QD): 3.61 µM·h | AUCss,0-24, second quartile ([2]; FIG. 8, monotherapy 8-16 mg QD): 2.07 µM·h | AUCss,0-24, third quartile ([2]; FIG. 8, monotherapy 8-16 mg QD): 2.62 µM·h | AUC ([2]; 12 mg, participant 1011, Grade 4 gastrointestinal hemorrhage, 12 mg QD, read-out: AUCss,0-24 of individual participant): 3.47 µM·h | AUC ([2]; 12 mg, participant 9002, Grade 4 gastrointestinal hemorrhage, 12 mg QD, read-out: AUCss,0-24 of individual participant): 3.61 µM·h | AUC ([2]; 12 mg, participant 12005, Grade 3 INR increased, 12 mg QD, concomitant warfarin, read-out: AUCss,0-24 of individual participant): 6.99 µM·h | AUC ([2]; 16 mg, participant 16001, Grade 3 INR increased, 16 mg QD, concomitant warfarin, read-out: AUCss,0-24 of individual participant): 9.77 µM·h | AUC ([2]; FIG. 8, monotherapy 8-16 mg QD, read-out: AUCss,0-24, first quartile): 0.893 to 2.04 µM·h | clinically notable AE incidence: INR increased ([2]; monotherapy 8, 12 or 16 mg): 8.5% | clinically notable AE incidence: epistaxis ([2]; monotherapy 8, 12 or 16 mg): 9.9% | clinically notable AE incidence: gastrointestinal hemorrhage ([2]; monotherapy 8, 12 or 16 mg): 1.9% | clinically notable AE incidence: hyperglycemia ([2]; monotherapy 8, 12 or 16 mg): 17.4% | TEAE incidence: anemia [2, 6]: 27.3% | TEAE incidence: constipation [2, 6]: 20.7% | TEAE incidence: decreased appetite [2, 6]: 35.5% | TEAE incidence: diarrhea [2, 6]: 27.3% | TEAE incidence: dysgeusia [2, 6]: 19.8% | TEAE incidence: fatigue [2, 6]: 45.5% | TEAE incidence: nausea [2, 6]: 47.9% | TEAE incidence: thrombocytopenia [2, 6]: 28.9% | TEAE incidence: vomiting [2, 6]: 28.1% | AUCss,0-24 of individual participant ([2]; participant 9002, Grade 4 gastrointestinal hemorrhage, 12 mg QD): 2.15 µM·h | AUCss,0-24 of individual participant ([2]; participant 16001, Grade 3 INR increased, 16 mg QD, concomitant warfarin): 9.79 µM·h | spleen length reduction by spleen palpation ([3]; first participant, monotherapy 12 mg QD, nadir vs baseline): 92.5% | clinical outcome ([3]; second participant, monotherapy 8 mg QD, on study 24 days): only disease progression | Tmax, median ([4]; 8 mg QD, cycle 1 day 1, N = 12): 2.00 h | dose proportionality of steady-state Cmax and AUC0-24 ([4]; 8 to 16 mg QD): proportional to dose | steady-state oral clearance, geometric mean CLss/F ([4]; 8 to 16 mg QD): 9.92 to 10.7 L/h | AUC(0-t) ([4]; human, plasma, oral, 2 mg, 2 mg QD, linear PK extrapolation from 12 mg QD, read-out: estimated steady-state AUC0-24): 0.457 µM·h | AUC(0-t) ([4]; human, plasma, oral, 4 mg, 4 mg QD, linear PK extrapolation from 12 mg QD, read-out: estimated steady-state AUC0-24): 0.913 µM·h | AUC(0-t) ([4]; human, plasma, oral, 8 mg, 8 mg QD, cycle 1 day 1, N = 12, read-out: AUClast, geometric mean (CV %)): 2.09 µM·h | AUC(0-t) ([4]; human, plasma, oral, 8 mg, 8 mg QD, cycle 1 day 1, N = 12, read-out: AUClast, mean ± SD): 2.31 ± 1.12 µM·h | Cmax ([4]; human, plasma, oral, 8 mg, 8 mg QD, cycle 1 day 1, N = 12, read-out: Cmax, geometric mean (CV %)): 188 nM | Cmax ([4]; human, plasma, oral, 8 mg, 8 mg QD, cycle 1 day 1, N = 12, read-out: Cmax, mean ± SD): 201 ± 83.6 nM | AUC(0-t) ([4]; human, plasma, oral, 12 mg, 12 mg QD, cycle 1 day 1, N = 99, read-out: AUClast, geometric mean (CV %)): 2.55 µM·h | AUC(0-t) ([4]; human, plasma, oral, 12 mg, 12 mg QD, cycle 1 day 1, N = 99, read-out: AUClast, mean ± SD): 2.74 ± 1.09 µM·h | Cmax ([4]; human, plasma, oral, 12 mg, 12 mg QD, cycle 1 day 1, N = 99, read-out: Cmax, geometric mean (CV %)): 249 nM | Cmax ([4]; human, plasma, oral, 12 mg, 12 mg QD, cycle 1 day 1, N = 99, read-out: Cmax, mean ± SD): 266 ± 94.7 nM | AUC(0-t) ([4]; human, plasma, oral, 12 mg, 12 mg QD, read-out: steady-state AUC0-24, geometric mean): 2.74 µM·h | Cmax ([4]; human, plasma, oral, 12 mg, 12 mg QD, read-out: steady-state Cmax, geometric mean): 272 nM | AUC(0-t) ([4]; human, plasma, oral, 16 mg, 16 mg QD, cycle 1 day 1, N = 7, read-out: AUClast, geometric mean (CV %)): 3.21 µM·h | AUC(0-t) ([4]; human, plasma, oral, 16 mg, 16 mg QD, cycle 1 day 1, N = 7, read-out: AUClast, mean ± SD): 3.37 ± 1.06 µM·h | Cmax ([4]; human, plasma, oral, 16 mg, 16 mg QD, cycle 1 day 1, N = 7, read-out: Cmax, geometric mean (CV %)): 329 nM | Cmax ([4]; human, plasma, oral, 16 mg, 16 mg QD, cycle 1 day 1, N = 7, read-out: Cmax, mean ± SD): 343 ± 93.2 nM | Tmax ([4]; human, plasma, oral, 12 mg QD, cycle 1 day 1, N = 99, read-out: Tmax, median): 0.5 h | half-life ([4]; human, plasma, oral, 12 mg QD, steady-state, read-out: t1/2, geometric mean (converted)): 9.17 h | AUC ([4]; human, plasma, oral, 16 mg QD, read-out: steady-state AUC, geometric mean): 3.61 µM·h | Vd/F ([4]; human, plasma, oral, 8 to 16 mg QD, read-out: volume of distribution, geometric mean Vz/F): 138 to 197 L | Tmax ([4]; human, plasma, oral, multiple-dose, fasted state, 8 to 16 mg QD, read-out: median Tmax): 1 to 2 h | half-life ([4]; human, plasma, oral, multiple-dose, not dose-dependent, read-out: steady-state geometric mean half-life (converted)): ~10 h | accumulation of exposure (steady-state AUC0-24 vs first dose AUC0-24) ([4]; once daily dosing): < 10% | time to steady-state (predicted) ([4]; once daily dosing, based on effective half-life of 10 hours): 2 days | tumor growth inhibition ([5]; ruxolitinib 30 mg/kg BID, Compound 1 10 mg/kg QD, or both, oral, 14 days): significantly inhibited tumor growth | Fa (tumor growth inhibition level), SET-2 ([5]; table head: ruxolitinib 60 mg/kg BID, Compound 1 10 mg/kg QD, combination): 0.24
